Results taken from US20230024302A1, “2,3,5-TRISUBSTITUTED PYRAZOLO[1,5-A]PYRIMIDINE COMPOUNDS” (Arcus Biosciences, Inc., priority 2019, published 2023).

Assays:
PI3Kγ (p120γ) = molecular target: T1, PI3Kγ (p120γ) (Homo sapiens, UniProt P48736); assay: Inhibition of PI3K kinase activity (ADP Glo), PI3Kγ; settings: Table 1, p120γ, read-out: biochemical potency (PI3Kγ IC50)
T1 construct: purchased Promega V1761
Procedure, shortened: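 Recombinant p120γ (8 nM, 2× stock) was preincubated with compound for 1 h at rt in HEPES pH 7.4, NaCl, MgCl2 and 0.05% BSA. Reaction was started with PIP2 (0.1 mg/ml, 2×) and ATP (50 μM, 2×) and ran 60 min at rt. ADP formed was read by ADP-Glo luminescence, and IC50 came from a 4-parameter fit.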

PI3Kγ = molecular target: T2, PI3Kγ (Homo sapiens, UniProt P48736); assay: PI3Kγ cellular assay in THP-1 cells (AKT pS473 AlphaLISA); type: cell-based; settings: Table 1, rhMCP-1 stimulated AKT pS473, read-out: cellular potency (PI3Kγ IC50)
T2 construct: host or cells: THP-1
T2 sequence (P48736 whole entry): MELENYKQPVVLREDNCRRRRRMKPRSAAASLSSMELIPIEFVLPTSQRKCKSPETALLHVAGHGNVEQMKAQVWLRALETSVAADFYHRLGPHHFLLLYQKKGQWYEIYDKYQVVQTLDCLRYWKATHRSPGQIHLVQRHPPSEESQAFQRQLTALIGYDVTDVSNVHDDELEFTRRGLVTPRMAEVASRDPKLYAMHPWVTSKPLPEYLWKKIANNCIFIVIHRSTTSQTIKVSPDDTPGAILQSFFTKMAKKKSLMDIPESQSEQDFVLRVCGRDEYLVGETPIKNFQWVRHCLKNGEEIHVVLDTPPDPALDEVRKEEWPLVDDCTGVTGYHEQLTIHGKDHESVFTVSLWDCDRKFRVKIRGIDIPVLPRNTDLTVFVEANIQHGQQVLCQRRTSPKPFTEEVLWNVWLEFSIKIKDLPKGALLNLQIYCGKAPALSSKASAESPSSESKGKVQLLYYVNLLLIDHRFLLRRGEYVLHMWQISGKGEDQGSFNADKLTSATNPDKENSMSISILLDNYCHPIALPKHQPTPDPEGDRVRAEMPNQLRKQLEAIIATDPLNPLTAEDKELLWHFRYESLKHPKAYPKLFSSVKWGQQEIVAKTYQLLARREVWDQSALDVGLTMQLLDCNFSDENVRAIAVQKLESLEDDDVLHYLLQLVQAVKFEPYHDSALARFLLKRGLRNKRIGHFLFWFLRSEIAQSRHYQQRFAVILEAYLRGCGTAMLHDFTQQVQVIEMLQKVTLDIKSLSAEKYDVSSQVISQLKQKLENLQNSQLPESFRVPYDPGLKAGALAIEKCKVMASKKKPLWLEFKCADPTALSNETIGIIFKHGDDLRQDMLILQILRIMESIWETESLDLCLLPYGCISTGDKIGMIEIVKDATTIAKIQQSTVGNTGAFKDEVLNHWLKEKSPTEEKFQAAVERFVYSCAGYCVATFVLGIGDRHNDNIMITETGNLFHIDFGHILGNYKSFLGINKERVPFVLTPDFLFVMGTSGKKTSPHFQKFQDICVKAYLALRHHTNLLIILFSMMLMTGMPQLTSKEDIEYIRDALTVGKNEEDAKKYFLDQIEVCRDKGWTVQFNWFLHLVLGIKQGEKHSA
Procedure, shortened: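 Serum-starved THP-1 cells (1.8×10^5/well, serum-free DMEM) treated with compounds from 4 nM to 30 μM in 2% DMSO, then stimulated and lysed.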

T1 sequence (P48736 whole entry): as above

| Compound | IC50 (PI3Kγ (p120γ)) [nM] | IC50 (PI3Kγ) [nM] |
| --- | --- | --- |
| C[C@H](CO)NC(=O)c1c(N)nn2ccc(-c3cc4c(c(NS(C)(=O)=O)c3)C(=O)N([C@@H](C)C(F)(F)F)C4)nc12 [Example 118, 2-Amino-N-[(2R)-1-hydroxypropan-2-yl]-5-{7-methanesulfonamido-1-oxo-2-[(2S)-1,1,1-trifluoropropan-2-yl]-2,3-dihydro-1H-isoindol-5-yl}pyrazolo[1,5-a]pyrimidine-3-carboxamide] | < 100 | < 100 |
| CC[C@H](CO)NC(=O)c1c(N)nn2ccc(-c3cc4c(c(NS(C)(=O)=O)c3)C(=O)N([C@@H](C)C(F)(F)F)C4)nc12 [Example 119, 2-Amino-N-[(2R)-1-hydroxybutan-2-yl]-5-{7-methanesulfonamido-1-oxo-2-[(2S)-1,1,1-trifluoropropan-2-yl]-2,3-dihydro-1H-isoindol-5-yl}pyrazolo[1,5-a]pyrimidine-3-carboxamide] | < 100 | < 100 |
| C[C@H](N1Cc2cc(-c3ccn4nc(N)c(C(=O)N[C@@H](CO)C5CC5)c4n3)cc(NS(C)(=O)=O)c2C1=O)C(F)(F)F [Example 120, 2-Amino-N-((R)-1-cyclopropyl-2-hydroxyethyl)-5-(7-(methylsulfonamido)-1-oxo-2-((S)-1,1,1-trifluoropropan-2-yl)isoindolin-5-yl)pyrazolo[1,5-a]pyrimidine-3-carboxamide] | < 100 | < 100 |
| C[C@H](N1Cc2cc(-c3ccn4nc(N)c(C(=O)N[C@H]5C[C@H](O)C5)c4n3)cc(NS(C)(=O)=O)c2C1=O)C(F)(F)F [Example 121, 2-Amino-5-{7-methanesulfonamido-1-oxo-2-[(2S)-1,1,1-trifluoropropan-2-yl]-2,3-dihydro-1H-isoindol-5-yl}-N-[trans-3-hydroxycyclobutyl]pyrazolo[1,5-a]pyrimidine-3-carboxamide] | < 100 | < 100 |
| C[C@H](N1Cc2cc(-c3ccn4nc(N)c(C(=O)N[C@H]5CC[C@@](C)(O)CC5)c4n3)cc(NS(C)(=O)=O)c2C1=O)C(F)(F)F [Example 122, 2-Amino-5-{7-methanesulfonamido-1-oxo-2-[(2S)-1,1,1-trifluoropropan-2-yl]-2,3-dihydro-1H-isoindol-5-yl}-N-[cis-4-hydroxy-4-methylcyclohexyl]pyrazolo[1,5-a]pyrimidine-3-carboxamide] | < 100 | < 100 |
| CC[C@H](N1Cc2cc(-c3ccn4nc(N)c(C(=O)NC5COC5)c4n3)cc(NS(C)(=O)=O)c2C1=O)C(F)(F)F [Example 123, 2-Amino-5-{7-methanesulfonamido-1-oxo-2-[(2S)-1,1,1-trifluorobutan-2-yl]-2,3-dihydro-1H-isoindol-5-yl}-N-(oxetan-3-yl)pyrazolo[1,5-a]pyrimidine-3-carboxamide] | < 100 | < 100 |
| CC[C@H](N1Cc2cc(-c3ccn4nc(N)c(C(=O)NC5CC5)c4n3)cc(NS(C)(=O)=O)c2C1=O)C(F)(F)F [Example 124, 2-Amino-N-cyclopropyl-5-{7-methanesulfonamido-1-oxo-2-[(2S)-1,1,1-trifluorobutan-2-yl]-2,3-dihydro-1H-isoindol-5-yl}pyrazolo[1,5-a]pyrimidine-3-carboxamide] | < 100 | < 100 |
| CC[C@H](N1Cc2cc(-c3ccn4nc(N)c(C(=O)NC5(C)COC5)c4n3)cc(NS(C)(=O)=O)c2C1=O)C(F)(F)F [Example 125, 2-Amino-5-{7-methanesulfonamido-1-oxo-2-[(2S)-1,1,1-trifluorobutan-2-yl]-2,3-dihydro-1H-isoindol-5-yl}-N-(3-methyloxetan-3-yl)pyrazolo[1,5-a]pyrimidine-3-carboxamide] | < 100 | < 100 |
| CC[C@H](N1Cc2cc(-c3ccn4nc(N)c(C(=O)N[C@H]5C[C@H](C(C)(C)O)C5)c4n3)cc(NS(C)(=O)=O)c2C1=O)C(F)(F)F [Example 126, 2-Amino-5-{7-methanesulfonamido-1-oxo-2-[(2S)-1,1,1-trifluorobutan-2-yl]-2,3-dihydro-1H-isoindol-5-yl}-N-[trans-3-(2-hydroxypropan-2-yl)cyclobutyl]pyrazolo[1,5-a]pyrimidine-3-carboxamide] | < 100 | < 100 |

The remaining lines, values ahead:

| IC50 (PI3Kγ (p120γ)) [nM] | IC50 (PI3Kγ) [nM] | Compound |
| --- | --- | --- |
| < 100 | < 100 | CC[C@H](N1Cc2cc(-c3ccn4nc(N)c(C(=O)N[C@H]5CC[C@](C)(O)CC5)c4n3)cc(NS(C)(=O)=O)c2C1=O)C(F)(F)F [Example 127, 2-Amino-5-{7-methanesulfonamido-1-oxo-2-[(2S)-1,1,1-trifluorobutan-2-yl]-2,3-dihydro-1H-isoindol-5-yl}-N-[trans-4-hydroxy-4-methylcyclohexyl]pyrazolo[1,5-a]pyrimidine-3-carboxamide] |
| < 100 | < 100 | CS(=O)(=O)Nc1cc(-c2ccn3nc(N)c(C(=O)NC4CC4)c3n2)cc2c1C(=O)N([C@@H](C1CC1)C(F)(F)F)C2 [Example 128, 2-Amino-N-cyclopropyl-5-{2-[(1S)-1-cyclopropyl-2,2,2-trifluoroethyl]-7-methanesulfonamido-1-oxo-2,3-dihydro-1H-isoindol-5-yl}pyrazolo[1,5-a]pyrimidine-3-carboxamide] |
| < 100 | < 100 | CS(=O)(=O)Nc1cc(-c2ccn3nc(N)c(C(=O)NC4CC4)c3n2)cc2c1C(=O)N([C@H](C1CC1)C(F)(F)F)C2 [Example 129, 2-Amino-N-cyclopropyl-5-{2-[(1R)-1-cyclopropyl-2,2,2-trifluoroethyl]-7-methanesulfonamido-1-oxo-2,3-dihydro-1H-isoindol-5-yl}pyrazolo[1,5-a]pyrimidine-3-carboxamide] |
| < 100 | < 100 | C[C@@H](C1CC1)N1Cc2cc(-c3ccn4nc(N)c(C(=O)Nc5cnn(C)c5)c4n3)cc(S(C)(=O)=O)c2C1=O [Example 130, 2-Amino-5-{2-[(1S)-1-cyclopropylethyl]-7-methanesulfonyl-1-oxo-2,3-dihydro-1H-isoindol-5-yl}-N-(1-methyl-1H-pyrazol-4-yl)pyrazolo[1,5-a]pyrimidine-3-carboxamide] |
| < 100 | < 100 | C[C@@H](C1CC1)N1Cc2cc(-c3ccn4nc(N)c(C(=O)N[C@H]5CC[C@@](C)(O)CC5)c4n3)cc(S(C)(=O)=O)c2C1=O [Example 131, 2-Amino-5-{2-[(1S)-1-cyclopropylethyl]-7-methanesulfonyl-1-oxo-2,3-dihydro-1H-isoindol-5-yl}-N-[cis-4-hydroxy-4-methylcyclohexyl]pyrazolo[1,5-a]pyrimidine-3-carboxamide] |
| < 100 | < 100 | C[C@@H](C1CC1)N1Cc2cc(-c3ccn4nc(N)c(C(=O)NC5CC5)c4n3)cc(S(C)(=O)=O)c2C1=O [Example 132, 2-Amino-N-cyclopropyl-5-{2-[(1S)-1-cyclopropylethyl]-7-methanesulfonyl-1-oxo-2,3-dihydro-1H-isoindol-5-yl}pyrazolo[1,5-a]pyrimidine-3-carboxamide] |
| < 100 | < 100 | CCS(=O)(=O)c1cc(-c2ccn3nc(N)c(C(=O)NC4CC4)c3n2)cc2c1C(=O)N([C@@H](C)C1CC1)C2 [Example 133, 2-Amino-N-cyclopropyl-5-{2-[(1S)-1-cyclopropylethyl]-7-(ethanesulfonyl)-1-oxo-2,3-dihydro-1H-isoindol-5-yl}pyrazolo[1,5-a]pyrimidine-3-carboxamide] |
| < 100 | < 100 | C[C@@H](C1CC1)N1Cc2cc(-c3ccn4nc(N)c(C(=O)NC5CC5)c4n3)cc(S(=O)(=O)CC3CC3)c2C1=O [Example 135, 2-Amino-N-cyclopropyl-5-{2-[(1S)-1-cyclopropylethyl]-7-cyclopropylmethanesulfonyl-1-oxo-2,3-dihydro-1H-isoindol-5-yl}pyrazolo[1,5-a]pyrimidine-3-carboxamide] |
| < 100 | < 100 | C[C@@H](C1CC1)N1Cc2cc(-c3ccn4nc(N)c(C(=O)NC5CC5)c4n3)cc(S(=O)(=O)C3CCC3)c2C1=O [Example 136, 2-Amino-5-[7-(cyclobutanesulfonyl)-2-[(1S)-1-cyclopropylethyl]-1-oxo-2,3-dihydro-1H-isoindol-5-yl]-N-cyclopropylpyrazolo[1,5-a]pyrimidine-3-carboxamide] |
| < 100 | < 100 | C[C@@H](C1CC1)N1Cc2cc(-c3ccn4nc(N)c(C(=O)NC5CC5)c4n3)cc(S(=O)(=O)C3CCCC3)c2C1=O [Example 137, 2-Amino-5-[7-(cyclopentanesulfonyl)-2-[(1S)-1-cyclopropylethyl]-1-oxo-2,3-dihydro-1H-isoindol-5-yl]-N-cyclopropylpyrazolo[1,5-a]pyrimidine-3-carboxamide] |
| < 100 | < 100 | C[C@@H](C1CC1)N1Cc2cc(-c3ccn4nc(N)c(C(=O)NC5CC5)c4n3)cc(S(=O)(=O)C3CCCCC3)c2C1=O [Example 138, 2-Amino-5-[7-(cyclohexanesulfonyl)-2-[(1S)-1-cyclopropylethyl]-1-oxo-2,3-dihydro-1H-isoindol-5-yl]-N-cyclopropylpyrazolo[1,5-a]pyrimidine-3-carboxamide] |
| < 100 | < 100 | CNS(=O)(=O)c1cc(-c2ccn3nc(N)c(C(=O)NC4CC4)c3n2)cc2c1C(=O)N([C@@H](C)C(F)(F)F)C2 [Example 139, 2-Amino-N-cyclopropyl-5-[7-(methylsulfamoyl)-1-oxo-2-[(2S)-1,1,1-trifluoropropan-2-yl]-2,3-dihydro-1H-isoindol-5-yl]pyrazolo[1,5-a]pyrimidine-3-carboxamide] |
